Test results taken from patent US20100041089A1, “IMPROVED METHOD FOR DETECTING CHEMICAL […]” (priority 2006, published 2010).

System: yeast genes (expressed mRNA)
Test: DNA chip measurement of expressed mRNA of yeast genes after culture with a toxic chemical substance
Type: cell-based, Saccharomyces cerevisiae S288C
Details: for level of expressed mRNA in the presence of chemical substance / level in the absence of chemical substance: cultured two hours with the chemical substance; for The level of expressed mRNA in the presence of chemical substance/The level of expressed mRNA in the absence of chemical substance: cultured two hours with substance
How it was run: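 Expression is given as treated/untreated fluorescence ratio on a whole-genome yeast DNA chip, a ratio of two or more being significant. Log-phase S288C cultures in YPD at 25 °C received the chemical for 2 h at a dose that slows growth without killing. mRNA was reverse-transcribed with Cy3- or Cy5-dUTP.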

Compound: Cl[C@H]1[C@H](Cl)[C@@H](Cl)[C@@H](Cl)[C@H](Cl)[C@H]1Cl [(7), γ-Hexachlorocyclohexane]
- level of expressed mRNA in the presence of chemical substance / level in the absence of chemical substance (yeast gene YNL058C): 0.7
- level of expressed mRNA in the presence of chemical substance / level in the absence of chemical substance (yeast gene YNL063W): 1.4
- The level of expressed mRNA in the presence of chemical substance/The level of expressed mRNA in the absence of chemical substance (yeast gene YNL074C): 1.1
- The level of expressed mRNA in the presence of chemical substance/The level of expressed mRNA in the absence of chemical substance (yeast gene YNL092W): 1.6
- The level of expressed mRNA in the presence of chemical substance/The level of expressed mRNA in the absence of chemical substance (yeast gene YNL115C): 2.4
- The level of expressed mRNA in the presence of chemical substance/The level of expressed mRNA in the absence of chemical substance (yeast gene YNL156C): 1.9
- level of expressed mRNA in the presence of chemical substance / level in the absence of chemical substance (yeast gene YNL176C): 0.7
- level of expressed mRNA in the presence of chemical substance / level in the absence of chemical substance (yeast gene YNL194C): 1.5
- level of expressed mRNA in the presence of chemical substance / level in the absence of chemical substance (yeast gene YNL200C): 1.2
- The level of expressed mRNA in the presence of chemical substance/The level of expressed mRNA in the absence of chemical substance (yeast gene YNL234W): 1.2
- level of expressed mRNA in the presence of chemical substance / level in the absence of chemical substance (yeast gene YNL253W): 1.3
- level of expressed mRNA in the presence of chemical substance / level in the absence of chemical substance (yeast gene YNL276C): 0.9
- The level of expressed mRNA in the presence of chemical substance/The level of expressed mRNA in the absence of chemical substance (yeast gene YNL281W): 1.2
- The level of expressed mRNA in the presence of chemical substance/The level of expressed mRNA in the absence of chemical substance (yeast gene YNL305C): 1.7
- level of expressed mRNA in the presence of chemical substance / level in the absence of chemical substance (yeast gene YNR051C): 1.3
- The level of expressed mRNA in the presence of chemical substance/The level of expressed mRNA in the absence of chemical substance (yeast gene YNR068C): 1.8
- level of expressed mRNA in the presence of chemical substance / level in the absence of chemical substance (yeast gene YOL026C): 1.8
- The level of expressed mRNA in the presence of chemical substance/The level of expressed mRNA in the absence of chemical substance (yeast gene YOL032W): 1.4
- The level of expressed mRNA in the presence of chemical substance/The level of expressed mRNA in the absence of chemical substance (yeast gene YOL036W): 1.0
- The level of expressed mRNA in the presence of chemical substance/The level of expressed mRNA in the absence of chemical substance (yeast gene YOL047C): 1.3
- The level of expressed mRNA in the presence of chemical substance/The level of expressed mRNA in the absence of chemical substance (yeast gene YOL071W): 2.0
- The level of expressed mRNA in the presence of chemical substance/The level of expressed mRNA in the absence of chemical substance (yeast gene YOL082W): 2.5
- The level of expressed mRNA in the presence of chemical substance/The level of expressed mRNA in the absence of chemical substance (yeast gene YOL083W): 3.1
- The level of expressed mRNA in the presence of chemical substance/The level of expressed mRNA in the absence of chemical substance (yeast gene YOL117W): 1.6
- The level of expressed mRNA in the presence of chemical substance/The level of expressed mRNA in the absence of chemical substance (yeast gene YOL131W): 1.3
- The level of expressed mRNA in the presence of chemical substance/The level of expressed mRNA in the absence of chemical substance (yeast gene YOL150C): 2.4
- The level of expressed mRNA in the presence of chemical substance/The level of expressed mRNA in the absence of chemical substance (yeast gene YOL162W): 2.0
- The level of expressed mRNA in the presence of chemical substance/The level of expressed mRNA in the absence of chemical substance (yeast gene YOR019W): 2.8
- level of expressed mRNA in the presence of chemical substance / level in the absence of chemical substance (yeast gene YOR022C): 1.6
- level of expressed mRNA in the presence of chemical substance / level in the absence of chemical substance (yeast gene YOR087W): 0.9
- level of expressed mRNA in the presence of chemical substance / level in the absence of chemical substance (yeast gene YOR138C): 1.1
- The level of expressed mRNA in the presence of chemical substance/The level of expressed mRNA in the absence of chemical substance (yeast gene YOR197W): 0.9
- level of expressed mRNA in the presence of chemical substance / level in the absence of chemical substance (yeast gene YOR253W): 1.3
- level of expressed mRNA in the presence of chemical substance / level in the absence of chemical substance (yeast gene YOR267C): 0.9
- level of expressed mRNA in the presence of chemical substance / level in the absence of chemical substance (yeast gene YOR325W): 1.2
- level of expressed mRNA in the presence of chemical substance / level in the absence of chemical substance (yeast gene YPL005W): 2.0
- The level of expressed mRNA in the presence of chemical substance/The level of expressed mRNA in the absence of chemical substance (yeast gene YPL087W): 4.2
- level of expressed mRNA in the presence of chemical substance / level in the absence of chemical substance (yeast gene YPL150W): 1.2
- level of expressed mRNA in the presence of chemical substance / level in the absence of chemical substance (yeast gene YPL152W): 1.3
- level of expressed mRNA in the presence of chemical substance / level in the absence of chemical substance (yeast gene YPL168W): 1.2
- level of expressed mRNA in the presence of chemical substance / level in the absence of chemical substance (yeast gene YPL180W): 1.0
- level of expressed mRNA in the presence of chemical substance / level in the absence of chemical substance (yeast gene YPL188W): 1.3
- The level of expressed mRNA in the presence of chemical substance/The level of expressed mRNA in the absence of chemical substance (yeast gene YPL196W): 2.4
- The level of expressed mRNA in the presence of chemical substance/The level of expressed mRNA in the absence of chemical substance (yeast gene YPL206C): 1.2
- level of expressed mRNA in the presence of chemical substance / level in the absence of chemical substance (yeast gene YPL221W): 1.3
- The level of expressed mRNA in the presence of chemical substance/The level of expressed mRNA in the absence of chemical substance (yeast gene YPL222W): 1.1
- level of expressed mRNA in the presence of chemical substance / level in the absence of chemical substance (yeast gene YPL225W): 1.7
- The level of expressed mRNA in the presence of chemical substance/The level of expressed mRNA in the absence of chemical substance (yeast gene YPR023C): 1.2
- level of expressed mRNA in the presence of chemical substance / level in the absence of chemical substance (yeast gene YPR049C): 1.1
- level of expressed mRNA in the presence of chemical substance / level in the absence of chemical substance (yeast gene YPR146C): 1.0
- level of expressed mRNA in the presence of chemical substance / level in the absence of chemical substance (yeast gene YPR148C): 1.6
- The level of expressed mRNA in the presence of chemical substance/The level of expressed mRNA in the absence of chemical substance (yeast gene YPR151C): 4.4
- level of expressed mRNA in the presence of chemical substance / level in the absence of chemical substance (yeast gene YPR172W): 1.2
